The record followed here is US9073927B2, “Inhibitors of PI3 kinase” (FUNDACION CENTRO NACIONAL DE INVESTIGACIONES ONCOLOGICAS …, priority 2010, dated 2015).

The structures appear in SMILES notation. Where two headings read alike, the source gives them in different places.

As a reminder, the EC50 is the concentration that produces a half-maximal response.

For one assay, the system named is A549 cells. The assay can be described thus: In vitro cell proliferation / combination assay (MTT), A549. Format: cell-based. To be noted: for EC50: Homo sapiens, A549, Lung, Ras G12S; for Synergy / Combination Index (Cl): A549; for Combination Index (Cl): Chou and Talalay. As to the method: (§1) Cells were seeded at 10000-50000 cells/well in 96 plates for 16 h. On day two, nine serial 1:3 compound dilutions were made in DMSO in a 96 well plate. The compounds were added to duplicate wells in 96-well cell plates a using a FX BECKMAN robot (Beckman Coulter) and incubated at 37° C. with CO2 atmosphere. After 3 days, relative numbers of viable cells were measured by MTT (Sigma) according to manufacturer's instruction and read on EndVision (Perkin Elmer). EC50 values were calculated using Activityl)ase from IDBS. Drugs in combination assays were dosed starting at 4×EC50 concentrations and continuing with serial dilutions 1:2. PI3K inhibitors and chemotherapeutic agents were added simultaneously.
An additional exemplary in vitro cell proliferation assay includes the following steps: • 1. An aliquot of 200 μl of cell culture containing optimal density (between 10^4-5×10^4 cells) (see Examples for cell lines and tumour type) in medium was deposited in each well of a 96-well flat bottom plates. • 2. Control wells were prepared containing medium without cells • 3. The compound was added to the experimental wells and incubated for 3 days. • 4. One quarter volume of MTT reagent with respect to the volume of cell culture medium present in each well was added and incubated 24 h at 37° C. with 5% CO2. • 5. One quarter volume of solubilisation buffer with respect to the volume of cell culture medium present in each well was added and incubated 24 h at 37° C. with 5% CO2. • 6. Formazan salt formed was recorded and reported in graphs as relative growth vs. cells treated only with dmso.
The individual measured EC50 values against the particular cell of the exemplary compounds and of the chemotherapeutic agent are compared to the combination EC50 value. The combination Index (CI) score is calculated by the Chou and Talalay method (CalcuSyn software, Biosoft). A CI less 0.8 indicates synergy. A CI between 0.8 and 1.2 indicates additivity. A CI greater than 1.2 indicates antagonism.
The individual measured EC50 values against the particular cell of the exemplary compounds and of the chemotherapeutic agents are compared to the combination EC50 value. The combination Index (CI) score is calculated by the Chou and Talalay method (CalcuSyn software, Biosoft). A CI less 0.8 indicates synergy. A CI between 0.8 and 1.2 indicates additivity. A CI greater than 1.2 indicates antagonism.

For a further assay, the target named is T1, PI3K (p110α/p85α) (Homo sapiens, UniProt P42336).
T1 construct: purchased Carna Biosciences 07CBS-0402A
T1 sequence (P42336 whole entry): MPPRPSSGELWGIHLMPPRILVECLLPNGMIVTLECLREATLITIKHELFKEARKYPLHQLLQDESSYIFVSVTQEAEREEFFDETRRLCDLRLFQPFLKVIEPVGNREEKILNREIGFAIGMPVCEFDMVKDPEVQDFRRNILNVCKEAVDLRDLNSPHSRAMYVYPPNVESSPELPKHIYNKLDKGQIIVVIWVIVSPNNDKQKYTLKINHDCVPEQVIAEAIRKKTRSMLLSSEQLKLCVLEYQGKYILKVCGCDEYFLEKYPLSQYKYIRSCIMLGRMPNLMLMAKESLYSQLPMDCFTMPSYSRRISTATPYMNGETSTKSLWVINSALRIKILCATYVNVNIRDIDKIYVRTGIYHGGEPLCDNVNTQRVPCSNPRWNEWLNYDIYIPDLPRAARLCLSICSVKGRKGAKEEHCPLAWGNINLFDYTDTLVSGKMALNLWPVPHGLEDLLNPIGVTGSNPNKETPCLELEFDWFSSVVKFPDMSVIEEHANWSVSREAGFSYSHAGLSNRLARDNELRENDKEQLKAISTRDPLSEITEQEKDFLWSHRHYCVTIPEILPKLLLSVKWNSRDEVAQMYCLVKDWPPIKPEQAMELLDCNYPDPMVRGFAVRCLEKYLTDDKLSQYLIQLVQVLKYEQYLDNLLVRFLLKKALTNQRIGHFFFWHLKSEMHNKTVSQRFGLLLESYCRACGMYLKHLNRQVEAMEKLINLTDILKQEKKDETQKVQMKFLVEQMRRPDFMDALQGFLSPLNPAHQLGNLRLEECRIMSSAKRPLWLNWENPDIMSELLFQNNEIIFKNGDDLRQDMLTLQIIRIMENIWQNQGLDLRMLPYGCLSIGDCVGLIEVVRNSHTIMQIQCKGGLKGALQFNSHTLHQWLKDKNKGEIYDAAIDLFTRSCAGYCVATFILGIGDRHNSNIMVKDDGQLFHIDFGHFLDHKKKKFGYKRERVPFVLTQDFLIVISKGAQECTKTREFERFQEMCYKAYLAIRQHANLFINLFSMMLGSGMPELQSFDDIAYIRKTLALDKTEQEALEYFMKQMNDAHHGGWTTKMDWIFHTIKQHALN
T1 sequence (P27986 whole entry partner): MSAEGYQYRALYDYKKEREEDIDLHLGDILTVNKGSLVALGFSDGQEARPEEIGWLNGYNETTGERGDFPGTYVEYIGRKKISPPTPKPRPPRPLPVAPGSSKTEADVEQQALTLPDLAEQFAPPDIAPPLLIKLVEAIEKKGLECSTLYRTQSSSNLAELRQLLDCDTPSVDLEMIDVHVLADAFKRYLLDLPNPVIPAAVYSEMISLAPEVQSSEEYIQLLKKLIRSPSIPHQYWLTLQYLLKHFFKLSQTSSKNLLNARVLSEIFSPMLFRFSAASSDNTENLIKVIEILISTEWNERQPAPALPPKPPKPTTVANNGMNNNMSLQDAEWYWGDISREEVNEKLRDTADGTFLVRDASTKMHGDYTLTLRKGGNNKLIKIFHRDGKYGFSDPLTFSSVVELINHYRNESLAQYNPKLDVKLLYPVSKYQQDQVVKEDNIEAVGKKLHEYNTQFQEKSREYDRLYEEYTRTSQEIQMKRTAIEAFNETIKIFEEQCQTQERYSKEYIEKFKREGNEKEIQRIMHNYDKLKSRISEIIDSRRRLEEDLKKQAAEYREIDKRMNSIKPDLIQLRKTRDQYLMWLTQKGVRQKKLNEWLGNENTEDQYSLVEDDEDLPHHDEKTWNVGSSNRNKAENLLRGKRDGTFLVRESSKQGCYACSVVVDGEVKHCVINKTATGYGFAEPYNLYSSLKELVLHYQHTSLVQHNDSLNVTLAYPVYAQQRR
The assay can be described thus: PI3K activity assay (ADP Hunter Plus). The format is biochemical. As for the experimental part:
The kinase activity was measured by using the commercial ADP Hunter™ Plus assay available from DiscoveRx (#33-016), which is a homogeneous assay to measure the accumulation of ADP, a universal product of kinase activity. The enzyme, PI3K (p110α/p85α was purchased from Carna Biosciences (#07CBS-0402A). The assay was done following the manufacturer recommendations with slight modifications: Mainly the kinase buffer was replace by 50 mM HEPES, pH 7.5, 3 mM MgCl2, 100 mM NaCl, 1 mM EGTA, 0.04% CHAPS, 2 mM TCEP and 0.01 mg/ml BGG. The PI3K was assayed in a titration experiment to determine the optimal protein concentration for the inhibition assay. To calculate the IC50 of the ETP-compounds, serial 1:5 dilutions of the compounds were added to the enzyme at a fixed concentration (2.5 μg/ml. The enzyme was preincubated with the inhibitor and 30 μM PIP2 substrate (P9763, Sigma) for 5 min and then ATP was added to a final 50 μM concentration. Reaction was carried out for 1 hour at 25° C. Reagent A and B were sequentially added to the wells and plates were incubated for 30 min at 37° C. Fluorescence counts were read in a Victor instrument (Perkin Elmer) with the recommended settings (544 and 580 nm as excitation and emission wavelengths, respectively). Values were normalized against the control activity included for each enzyme (i.e., 100% PI3 kinase activity, without compound). These values were plot against the inhibitor concentration and were fit to a sigmoid dose-response curve by using the Graphad software.

The test system of another assay is phospho-Ser-473-Akt. The assay can be described thus: PI3K signalling: AKT phosphorylation inhibition, Western blot analysis. Format: cell-based. To be noted: read-out: p-AKT (IC50, WB). As for the experimental part:
AKT Phosphorylation Inhibition Western Blot Analysis
Subconfluent cells were incubated under different conditions and washed twice with TBS prior to lysis. Lysis buffer was added containing 50 mM Tris HCl, 150 mM NaCl, 1% NP-40, 2 mM Na3VO4, 100 mM NaF, 20 mM Na4P2O7 and protease inhibitor cocktail (Roche Molecular Biochemicals). The proteins were resolved on 10% SDS-PAGE and transferred to nitrocellulose membrane (Schleicher & Schuell, Dassel, Germany). The membranes were incubated overnight at 4° C. with antibodies specific for Akt, phospho-Ser-473-Akt (Cell Signaling Technology) and α-tubulin (Sigma), they were washed and then incubated with IRDye800 conjugated anti-mouse and Alexa Fluor 680 goat anti-rabbit IgG secondary antibodies. The bands were visualized using an Odyssey infrared imaging system (Li-Cor Biosciences). Compounds of the invention have a range of in vitro cell potency activities from about 1 nM to about 10 μM.
Compounds of the examples/invention were tested in the PI3K signalling cellular assay described hereinbefore (Western Blot Analysis), which measures AKT phosphorylation inhibition. Cellular activity of representative compounds, is represented in the table below: […]

For the next assay, the system named is SKVO3 cells. The assay can be described thus: In vitro cell proliferation / combination assay (MTT), SKVO3. Format: cell-based. Conditions: SKVO3, Ovarian, PIK3CA, p53. As to the method: as §1, with “PI3K inhibitors and chemotherapeutic agents were added simultaneously.” left out
An additional exemplary in vitro cell proliferation assay includes the following steps: • 1. […] Formazan salt formed was recorded and reported in graphs as relative growth vs. cells treated only with dmso.
The individual measured EC50 values against the particular cell of the exemplary compounds and of the chemotherapeutic agent are compared to the combination EC50 value. The combination Index (CI) score is calculated by the Chou and Talalay method (CalcuSyn software, Biosoft). […]
The individual measured EC50 values against the particular cell of the exemplary compounds and of the chemotherapeutic agents are compared to the combination EC50 value. The combination Index (CI) score is calculated by the Chou and Talalay method (CalcuSyn software, Biosoft). […]

[1] abbreviates: therapeutic (comp. (B)) alone, read-out: Chemot. EC50.
The mark [2] stands for this setting: combination of 2-4 with Lapatinib.
Where [3] appears, read: combination of 2-4 with PD-0325901.
Setting [4] is: compound alone, read-out: Compound No. 2-4 (comp. (A)) EC50.

On to `CS(=O)(=O)CCNCc1ccc(-c2ccc3ncnc(Nc4ccc(OCc5cccc(F)c5)c(Cl)c4)c3c2)o1` [Lapatinib, N-(3-chloro-4-(3-fluorobenzyloxy)phenyl)-6-(5-((2-(methylsulfonyl)ethylamino)-methyl)furan-2-yl)quinazolin-4-amine, reference compound], for which the EC50 with A549 cells (setting [1]) turned out to be 1000 nM.
As to `CS(=O)(=O)N1CCN(Cc2nc3c(N4CCOCC4)nc(-c4cccc5[nH]ncc45)cn3n2)CC1` [Compound 2-2], on PI3K (p110α/p85α) (Table 3, read-out: PI3Kα), the IC50 stood at 128 nM.
As for `CC(C)S(=O)(=O)N1CCN(Cc2cc3c(N4CCOCC4)nc(-c4cnc(N)nc4)cn3n2)CC1` [Compound 3-18, 5-{4-morpholin-4-yl-2-[4-(propane-2-sulfonyl)-piperazin-1-ylmethyl]-pyrazolo[1,5-a]pyrazin-6-yl}-pyrimidin-2-ylamine], the IC50 at PI3K (p110α/p85α) (read-out: IC50 PI3Kα) came out at 6 nM.
Still for that read-out and setting: in the case of `Nc1ncc(-c2cn3nc(CN4CCOCC4)cc3c(N3CCOCC3)n2)cn1` [Compound 3-17, 5-(4-morpholin-4-yl-2-morpholin-4-ylmethyl-pyrazolo[1,5-a]pyrazin-6-yl)-pyrimidin-2-ylamine] it was 80 nM; in that of `COCCN(C)Cc1cc2c(N3CCOCC3)nc(-c3cnc(N)nc3)cn2n1` [Compound 3-14, 5-(2-{[(2-methoxy-ethyl)-methyl-amino]-methyl}-4-morpholin-4-yl-pyrazolo[1,5-a]pyrazin-6-yl)-pyrimidin-2-ylamine], 106 nM; in that of `CS(=O)(=O)N1CCCN(Cc2cc3c(N4CCOCC4)nc(-c4cnc(N)nc4)cn3n2)CC1` [Compound 3-16, 5-[2-(4-methanesulfonyl-[1,4]diazepan-1-ylmethyl)-4-morpholin-4-yl-pyrazolo[1,5-a]pyrazin-6-yl]-pyrimidin-2-ylamine], 13 nM.
In the case of `Cc1nnc2c(N3CCOCC3)nc(-c3cccc(O)c3)cn12` [Compound 3-6], the IC50 on PI3K (p110α/p85α) (Table 4, read-out: PI3Kα) is 952 nM.
`CS(=O)(=O)N1CCN(Cc2nc3c(N4CCOCC4)nc(-c4cnc(N)nc4)cn3n2)CC1` [Compound 2-3]: the IC50 on PI3K (p110α/p85α) (Table 3, read-out: PI3Kα) came to 3 nM; with phospho-Ser-473-Akt it was 12 nM.
Regarding `Oc1cccc(-c2cn3cncc3c(N3CCOCC3)n2)c1` [Compound 3-11], the IC50 at PI3K (p110α/p85α) (Table 4, read-out: PI3Kα) was 317 nM.
Turning to `CS(=O)(=O)N1CCC(NCc2cc3c(N4CCOCC4)nc(-c4cnc(N)nc4)cn3n2)CC1` [Compound 3-13, 5-{2-[(1-methanesulfonyl-piperidin-4-ylamino)-methyl]-4-morpholin-4-yl-pyrazolo[1,5-a]pyrazin-6-yl}-pyrimidin-2-ylamine], the IC50 at PI3K (p110α/p85α) (read-out: IC50 PI3Kα) stood at 58 nM.
For the compound `OCc1cc2c(N3CCOCC3)nc(-c3cccc(O)c3)cn2n1` [Compound 3-2], the IC50 on PI3K (p110α/p85α) (Table 4, read-out: PI3Kα) stood at 174 nM.
Take `O=C(NOC[C@H](O)CO)c1ccc(F)c(F)c1Nc1ccc(I)cc1F` [PD-0325901, (R)—N-(2,3-dihydroxypropoxy)-3,4-difluoro-2-(2-fluoro-4-iodophenylamino)benz-amide, reference compound]: the EC50 in the assay on A549 cells (setting [1]) is 1000 nM.
With `COc1cccc(-c2cn3cncc3c(N3CCOCC3)n2)c1` [Compound 3-12, 6-(3-methoxy-phenyl)-8-morpholin-4-yl-imidazo[1,5-a]pyrazine], the IC50 at PI3K (p110α/p85α) (Table 4, read-out: PI3Kα) is 2000 nM.
For the compound `CC(=O)O[C@@]12CO[C@@H]1C[C@H](O)[C@@]1(C)C(=O)[C@H](O)C3=C(C)[C@@H](OC(=O)[C@H](O)[C@@H](NC(=O)OC(C)(C)C)c4ccccc4)C[C@](O)([C@@H](OC(=O)c4ccccc4)[C@H]21)C3(C)C` [Taxotere, (2R,3S)—N-carboxy-3-phenylisoserine, N-tert-butyl ester, 13-ester with 5,20-epoxy-1,2,4,7,10,13-hexahydroxytax-11-en-9-one 4-acetate 2-benzoate, trihydrate, reference compound], the EC50 in the assay on SKVO3 cells (setting [1]) was 2000 nM.
Consider `Cc1nnc2c(N3CCOCC3)nc(-c3cnc(N)nc3)cn12` [Compound 3-5], for which, on PI3K (p110α/p85α) (Table 4, read-out: PI3Kα), the IC50 was found to be 165 nM.
For `CS(=O)(=O)N1CCN(Cc2cn3nc(-c4cnc(N)nc4)nc(N4CCOCC4)c3n2)CC1` [Compound 3-9], the IC50 on PI3K (p110α/p85α) (Table 4, read-out: PI3Kα) was found to be 3 nM; in the assay with phospho-Ser-473-Akt, 5 nM.
Take `CS(=O)(=O)N1CCN(Cc2nc3c(N4CCOCC4)nc(-c4cnc(N)nc4)c(Cl)n3n2)CC1` [Compound 2-4]: the IC50 stood at 1.4 nM at PI3K (p110α/p85α) (Table 3, read-out: PI3Kα) and 64 nM in the assay on phospho-Ser-473-Akt. In addition, the Synergy result was “− (a combination index greater than 1.2)” in the assay on A549 cells (setting [2]) and “+++ (a combination index greater than 0.1 but lower than 0.3)” in the assay with A549 cells (setting [3]). Also, the “Combination Index (Cl)” value in the assay on A549 cells (setting [2]) is given as 2.44; in the assay on A549 cells (setting [3]), 0.27. Also, the EC50 with A549 cells (setting [4]) and in the assay on SKVO3 cells (setting [4]) was 1000 nM each time.
Regarding `CS(=O)(=O)N1CCN(Cc2cc3c(N4CCOCC4)nc(-c4cnc(N)nc4)cn3n2)CC1` [Compound 3-10, 5-[2-(4-methanesulfonyl-piperazin-1-ylmethyl)-4-morpholin-4-yl-pyrazolo[1,5-a]pyrazin-6-yl]-pyrimidin-2-ylamine], the IC50 came to 2 nM at PI3K (p110α/p85α) (Table 4, read-out: PI3Kα) and 14 nM in the assay with phospho-Ser-473-Akt.
